Measurements as given in ChEMBL document CHEMBL1201862, “PubChem BioAssay data set” (2004).
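Each compound was tested at five concentrations against cells in 96-well plates for 48 hours. GI50 = concentration required for 50% inhibition of growth.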 Calls of active or inactive are those of the source. Cut-off read from the data, not from the text of the source: active = GI50 up to about 1.1 µM and inactive = higher.

What was measured:
Assay in all cases: growth of human tumour cells (NCI), 48 h
LOX IMVI = system: LOX IMVI
OVCAR-3 = system: OVCAR-3
SW-620 = system: SW-620
SNB-75 = system: SNB-75
HCT-15 = system: HCT-15
NCI/ADR-RES = system: NCI/ADR-RES
SF-268 = system: SF-268
HOP-62 = system: HOP-62
SF-539 = system: SF-539
NCI-H460 = system: NCI-H460
MDA-MB-231 = system: MDA-MB-231
UO-31 = system: UO-31
HCC 2998 = system: HCC 2998
A549 = system: A549
CCRF-CEM = system: CCRF-CEM
CAKI-1 = system: CAKI-1
786-0 = system: 786-0
SF-295 = system: SF-295
UACC-62 = system: UACC-62
OVCAR-4 = system: OVCAR-4

| Compound | GI50 (LOX IMVI) | GI50 (OVCAR-3) | GI50 (SW-620) | GI50 (SNB-75) | GI50 (HCT-15) | GI50 (NCI/ADR-RES) | GI50 (SF-268) | GI50 (HOP-62) | GI50 (SF-539) | GI50 (NCI-H460) | GI50 (MDA-MB-231) | GI50 (UO-31) | GI50 (HCC 2998) | GI50 (A549) | GI50 (CCRF-CEM) | GI50 (CAKI-1) | GI50 (786-0) | GI50 (SF-295) | GI50 (UACC-62) | GI50 (OVCAR-4) |
| --- | --- | --- | --- | --- | --- | --- | --- | --- | --- | --- | --- | --- | --- | --- | --- | --- | --- | --- | --- | --- |
| CC(=O)OC/C=C\Cn1ncc(=O)[nH]c1=O | 3.32 µM (inactive) | 28.2 µM (inactive) | 17.1 µM (inactive) | 16.7 µM (inactive) | 19.2 µM | 23.1 µM (inactive) | 18 µM (inactive) | 20.8 µM (inactive) | 18.2 µM (inactive) | 23.3 µM (inactive) | 34 µM (inactive) | 16.1 µM (inactive) | 19 µM (inactive) | 22.9 µM (inactive) | 17.3 µM (inactive) | – | – | – | – | – |
| CN(N)c1nc(N)c(C#N)c(C#N)c1C#N | > 10 µM (inactive) | > 10 µM (inactive) | > 10 µM (inactive) | > 10 µM (inactive) | > 10 µM | > 10 µM (inactive) | > 10 µM (inactive) | > 10 µM (inactive) | > 10 µM (inactive) | – | > 10 µM (inactive) | – | > 10 µM (inactive) | > 10 µM (inactive) | > 10 µM (inactive) | > 10 µM (inactive) | > 10 µM (inactive) | > 10 µM (inactive) | > 10 µM (inactive) | > 10 µM (inactive) |
| COc1ccc(N[S+]([O-])c2ccc(-c3ccccc3)cc2)cc1 (stereo not given) | 19.5 µM (inactive) | > 100 µM (inactive) | 70.8 µM (inactive) | 22.3 µM (inactive) | > 100 µM | 55 µM (inactive) | 30.9 µM (inactive) | 52 µM (inactive) | > 100 µM (inactive) | > 100 µM (inactive) | > 100 µM (inactive) | > 100 µM (inactive) | > 100 µM (inactive) | > 100 µM (inactive) | > 100 µM (inactive) | > 100 µM (inactive) | > 10 µM (inactive) | > 100 µM (inactive) | – | – |
| CCOCCOc1ccc(OCCOCC)cc1 | 17.9 µM (inactive) | 30.1 µM (inactive) | 19.2 µM (inactive) | 18.8 µM (inactive) | 16.9 µM | 16.4 µM (inactive) | 17 µM (inactive) | > 100 µM (inactive) | > 10 µM (inactive) | 29.5 µM (inactive) | – | 13.6 µM (inactive) | 37.3 µM (inactive) | 37.6 µM (inactive) | 2.74 µM (inactive) | – | – | 25.4 µM (inactive) | 19 µM (inactive) | 6.04 µM (inactive) |
| CSCC(CO)NC(=O)/C=C/c1c(C)[nH]c(=O)[nH]c1=O (stereo not given) | 457 µM (inactive) | 53.1 µM (inactive) | 366 µM (inactive) | 444 µM (inactive) | 485 µM | 621 µM (inactive) | 223 µM (inactive) | 596 µM (inactive) | > 875 µM (inactive) | 671 µM (inactive) | – | 557 µM (inactive) | 85.1 µM (inactive) | > 875 µM (inactive) | 153 µM (inactive) | 91.8 µM (inactive) | – | > 875 µM (inactive) | > 800 µM (inactive) | 31.9 µM (inactive) |
| COc1cc2c(cc1OC)C(=O)/C(=C/c1cc(C)cc(C)c1)C2 | 0.0807 µM (active) | 0.0324 µM (active) | 0.0394 µM (active) | 0.211 µM (active) | 0.0296 µM | 0.065 µM (active) | 12.9 µM (inactive) | 0.127 µM (active) | 0.0871 µM (active) | 0.06 µM (active) | 0.143 µM (active) | 1.95 µM (inactive) | 0.0601 µM (active) | 0.0713 µM (active) | 0.0514 µM (active) | – | 0.0982 µM (active) | < 0.0301 µM (active) | 0.0443 µM (active) | 19.8 µM (inactive) |
| CC1(C)CC[C@]2(C)CC[C@]3(C)C(=CC[C@@H]4[C@@]5(C)CCC(=O)C(C)(C)[C@@H]5[C@H](O)C[C@]43C)[C@@H]2C1 | 17.1 µM (inactive) | 16.5 µM (inactive) | 19.8 µM (inactive) | – | 18.6 µM | 19.6 µM (inactive) | 17.8 µM (inactive) | 17 µM (inactive) | 17.8 µM (inactive) | 18 µM (inactive) | 11.5 µM (inactive) | – | 15.5 µM (inactive) | 20.3 µM (inactive) | 30.8 µM (inactive) | 18.3 µM (inactive) | 15.5 µM (inactive) | 17.6 µM (inactive) | 15.9 µM (inactive) | 18.1 µM (inactive) |
| CN1C2CCC1CC(C)(O)C2 (stereo not given) | > 100 µM (inactive) | > 100 µM (inactive) | > 100 µM (inactive) | – | > 100 µM | > 100 µM (inactive) | > 100 µM (inactive) | > 100 µM (inactive) | – | > 100 µM (inactive) | > 100 µM (inactive) | > 100 µM (inactive) | > 100 µM (inactive) | – | > 100 µM (inactive) | – | – | > 100 µM (inactive) | – | – |
| N=c1c2c(=S)n(-c3ccccc3)c(=S)n(-c3ccccc3)c2nc(SCCCN2CCN(c3cccc(Cl)c3)CC2)n1-c1ccccc1 | 26.5 µM (inactive) | > 100 µM (inactive) | > 100 µM (inactive) | 78.5 µM (inactive) | 59.2 µM | > 100 µM (inactive) | – | 44.7 µM (inactive) | > 100 µM (inactive) | > 100 µM (inactive) | 22.8 µM (inactive) | – | > 100 µM (inactive) | – | > 100 µM (inactive) | 84.3 µM (inactive) | – | 45.4 µM (inactive) | 49.2 µM (inactive) | > 100 µM (inactive) |
| CCN(CC)CCOc1ccc(N2Cc3cc(OC)c(OC)cc3C2=O)cc1 | > 100 µM (inactive) | > 100 µM (inactive) | > 100 µM (inactive) | – | > 100 µM | > 100 µM (inactive) | > 100 µM (inactive) | > 100 µM (inactive) | > 100 µM (inactive) | > 100 µM (inactive) | > 100 µM (inactive) | < 0.01 µM (active) | > 100 µM (inactive) | > 100 µM (inactive) | > 100 µM (inactive) | > 100 µM (inactive) | > 100 µM (inactive) | > 100 µM (inactive) | > 100 µM (inactive) | > 100 µM (inactive) |
| CC(C)=CC(=O)OC1C2C(C)=CC(O)C(O)C2(C)C2C3(O)OCC24C(CC(=O)OC14)C(C)C3O (stereo not given) | 0.0371 µM (active) | 0.0339 µM (active) | 0.162 µM (active) | 0.111 µM (active) | 0.476 µM | 17.5 µM (inactive) | 0.182 µM (active) | 0.168 µM (active) | 0.0466 µM (active) | 0.0596 µM (active) | – | 2.32 µM (inactive) | 0.101 µM (active) | 1.16 µM (inactive) | 0.0462 µM (active) | 2.93 µM (inactive) | – | 0.28 µM (active) | 0.0649 µM (active) | 0.0647 µM (active) |
| O=C(O)C(Cc1ccc(O)cn1)NC(=O)C(F)(F)F (stereo not given) | > 100 µM (inactive) | > 100 µM (inactive) | > 100 µM (inactive) | – | > 100 µM | > 100 µM (inactive) | > 100 µM (inactive) | > 100 µM (inactive) | > 100 µM (inactive) | > 100 µM (inactive) | > 100 µM (inactive) | > 100 µM (inactive) | > 100 µM (inactive) | > 100 µM (inactive) | > 100 µM (inactive) | > 100 µM (inactive) | > 100 µM (inactive) | > 100 µM (inactive) | – | – |
| COC(=O)C1(Cc2ccccc2)Cc2cc3c(cc2C1)CCC3 | 18.6 µM (inactive) | 33.7 µM (inactive) | 36.1 µM (inactive) | 20.3 µM (inactive) | 28.4 µM | 35.5 µM (inactive) | 41.4 µM (inactive) | 50.2 µM (inactive) | 41.3 µM (inactive) | 33.3 µM (inactive) | 45.3 µM (inactive) | 24 µM (inactive) | 34.1 µM (inactive) | 29.6 µM (inactive) | 14.9 µM (inactive) | – | 31.3 µM (inactive) | 37.5 µM (inactive) | 29.8 µM (inactive) | 30.7 µM (inactive) |
| S=C1SC(=N\c2ccccc2)/C(=N/c2ccccc2)N1c1ccccc1 | – | 34.4 µM (inactive) | – | 19 µM (inactive) | > 100 µM | > 100 µM (inactive) | – | 28 µM (inactive) | – | > 100 µM (inactive) | > 100 µM (inactive) | > 100 µM (inactive) | > 100 µM (inactive) | – | 18.1 µM (inactive) | > 100 µM (inactive) | – | 34.5 µM (inactive) | 22.8 µM (inactive) | 8.53 µM (inactive) |
| Cc1c2cccc-2ccc2c3ccccc3n(C(=O)c3ccc(Cl)cc3)c12 | > 100 µM (inactive) | > 100 µM (inactive) | > 100 µM (inactive) | > 100 µM (inactive) | 10.6 µM | > 100 µM (inactive) | > 100 µM (inactive) | > 100 µM (inactive) | > 100 µM (inactive) | > 89.7 µM (inactive) | > 100 µM (inactive) | > 100 µM (inactive) | – | > 100 µM (inactive) | > 57 µM (inactive) | > 100 µM (inactive) | > 100 µM (inactive) | > 100 µM (inactive) | > 100 µM (inactive) | > 100 µM (inactive) |
| O=C(c1ccco1)C1CC(c2c(O)ccc3ccccc23)=NN1 (stereo not given) | – | 12.2 µM (inactive) | 11.8 µM (inactive) | 11.8 µM (inactive) | 19 µM | 17.9 µM (inactive) | 10.1 µM (inactive) | 13.8 µM (inactive) | 13.1 µM (inactive) | 7.85 µM (inactive) | 13.2 µM (inactive) | 11.1 µM (inactive) | 12.1 µM (inactive) | – | 9.71 µM (inactive) | 16.2 µM (inactive) | – | 11.2 µM (inactive) | 12.6 µM (inactive) | 25.4 µM (inactive) |
